Measured values reported in publication PMC5664067, “Investigating the Interaction of Cyclic RGD Peptidomimetics with αVβ6 Integrin by Biochemical and Molecular Docking Studies” (Cancers, 2017).
Like-named read-outs stand apart in the source and are kept apart here.

Tests used:
αVβ3 integrin [1] = biological target: T1, αVβ3 integrin (Homo sapiens, UniProt P05106+P06756); set-up: method as in PMID 22517378; conditions: 50% inhibition of biotinylated vitronectin binding to αVβ3; cited from earlier work
T1 sequence (P06756 31-889 limits assumed): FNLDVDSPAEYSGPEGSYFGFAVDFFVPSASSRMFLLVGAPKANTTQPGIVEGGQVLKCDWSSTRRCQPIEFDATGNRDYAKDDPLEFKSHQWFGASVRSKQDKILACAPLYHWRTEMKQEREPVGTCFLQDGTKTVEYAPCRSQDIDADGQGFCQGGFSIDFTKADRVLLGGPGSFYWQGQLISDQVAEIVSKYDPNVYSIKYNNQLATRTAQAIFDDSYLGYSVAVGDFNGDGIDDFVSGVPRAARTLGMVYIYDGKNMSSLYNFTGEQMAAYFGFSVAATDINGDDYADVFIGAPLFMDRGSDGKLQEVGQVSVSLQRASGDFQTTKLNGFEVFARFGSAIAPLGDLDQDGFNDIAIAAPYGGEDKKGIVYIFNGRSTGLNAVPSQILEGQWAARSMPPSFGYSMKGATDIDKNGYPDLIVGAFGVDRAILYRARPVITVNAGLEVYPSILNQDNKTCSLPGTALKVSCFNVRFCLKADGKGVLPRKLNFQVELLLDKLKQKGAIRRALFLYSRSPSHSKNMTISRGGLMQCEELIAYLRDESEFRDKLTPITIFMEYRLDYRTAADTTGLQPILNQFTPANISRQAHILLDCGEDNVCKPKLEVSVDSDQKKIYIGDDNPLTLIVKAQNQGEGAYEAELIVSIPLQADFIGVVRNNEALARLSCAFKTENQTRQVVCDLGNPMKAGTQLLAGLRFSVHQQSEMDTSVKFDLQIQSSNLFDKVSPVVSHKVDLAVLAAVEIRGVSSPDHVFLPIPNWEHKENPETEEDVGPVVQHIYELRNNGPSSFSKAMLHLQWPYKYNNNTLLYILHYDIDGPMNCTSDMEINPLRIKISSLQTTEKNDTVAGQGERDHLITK
T1 sequence (P06756 891-1048 partner limits assumed): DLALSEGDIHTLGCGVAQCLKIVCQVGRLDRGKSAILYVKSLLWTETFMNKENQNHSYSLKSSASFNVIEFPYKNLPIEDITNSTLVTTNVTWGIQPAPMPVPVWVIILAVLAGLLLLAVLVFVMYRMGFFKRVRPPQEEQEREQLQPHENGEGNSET
T1 sequence (P05106 27-788): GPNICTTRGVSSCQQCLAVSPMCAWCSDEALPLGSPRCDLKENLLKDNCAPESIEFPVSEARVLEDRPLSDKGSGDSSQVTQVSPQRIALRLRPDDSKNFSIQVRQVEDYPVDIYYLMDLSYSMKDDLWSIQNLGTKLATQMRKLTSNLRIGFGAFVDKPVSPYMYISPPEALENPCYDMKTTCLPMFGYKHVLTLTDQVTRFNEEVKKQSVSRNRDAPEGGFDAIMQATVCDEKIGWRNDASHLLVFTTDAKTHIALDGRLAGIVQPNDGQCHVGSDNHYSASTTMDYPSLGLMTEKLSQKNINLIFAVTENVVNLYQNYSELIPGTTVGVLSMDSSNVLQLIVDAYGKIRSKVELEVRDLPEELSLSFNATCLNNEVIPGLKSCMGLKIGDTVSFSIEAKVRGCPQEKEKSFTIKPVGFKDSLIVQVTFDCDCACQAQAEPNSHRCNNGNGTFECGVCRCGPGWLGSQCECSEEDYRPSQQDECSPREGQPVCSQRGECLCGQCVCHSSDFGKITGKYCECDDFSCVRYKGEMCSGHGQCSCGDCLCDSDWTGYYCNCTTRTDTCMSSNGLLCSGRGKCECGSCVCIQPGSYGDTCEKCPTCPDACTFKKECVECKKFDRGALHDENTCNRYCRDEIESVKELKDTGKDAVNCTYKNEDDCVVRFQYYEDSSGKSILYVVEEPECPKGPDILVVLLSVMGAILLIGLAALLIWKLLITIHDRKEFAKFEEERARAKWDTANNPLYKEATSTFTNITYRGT

[2] = biological target: T2, Recombinant human integrin αVβ6 receptor (Homo sapiens, UniProt P06756+P18564); experiment: Competitive solid-phase binding assay: inhibition of biotinylated fibronectin binding to isolated αVβ6 integrin; conditions: for IC50 (αVβ6)/IC50 (αVβ3): selectivity ratio; for αVβ6 IC50: 50% inhibition of biotinylated fibronectin (1 μg/mL) binding to isolated αVβ6, mean ± SD of triplicate determinations
T2 construct: purchased R&D Systems
T2 sequence (P06756 31-889 limits assumed): as the sequence (P06756 31-889 limits assumed) above
T2 sequence (P06756 891-992 partner limits assumed): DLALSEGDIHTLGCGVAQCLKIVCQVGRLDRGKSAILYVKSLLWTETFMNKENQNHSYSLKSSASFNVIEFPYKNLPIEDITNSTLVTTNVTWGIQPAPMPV
T2 sequence (P18564 22-707 limits assumed): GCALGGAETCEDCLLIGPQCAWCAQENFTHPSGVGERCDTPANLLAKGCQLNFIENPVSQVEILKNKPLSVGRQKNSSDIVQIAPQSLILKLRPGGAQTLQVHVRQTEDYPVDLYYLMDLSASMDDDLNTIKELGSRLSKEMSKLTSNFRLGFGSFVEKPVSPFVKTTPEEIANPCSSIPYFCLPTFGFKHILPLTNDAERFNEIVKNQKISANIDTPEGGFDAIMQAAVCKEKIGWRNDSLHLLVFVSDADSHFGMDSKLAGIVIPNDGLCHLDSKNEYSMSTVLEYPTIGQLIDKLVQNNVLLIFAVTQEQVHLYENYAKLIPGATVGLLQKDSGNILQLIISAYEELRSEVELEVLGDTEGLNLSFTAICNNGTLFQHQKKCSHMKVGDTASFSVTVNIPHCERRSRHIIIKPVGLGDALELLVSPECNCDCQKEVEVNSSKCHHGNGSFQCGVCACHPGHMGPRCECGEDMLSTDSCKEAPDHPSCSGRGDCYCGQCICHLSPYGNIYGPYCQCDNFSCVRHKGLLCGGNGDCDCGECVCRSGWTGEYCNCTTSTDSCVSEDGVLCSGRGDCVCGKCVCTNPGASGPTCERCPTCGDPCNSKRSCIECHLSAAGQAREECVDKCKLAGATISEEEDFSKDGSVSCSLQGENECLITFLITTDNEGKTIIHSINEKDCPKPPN
Method: The assay was performed according to previously reported procedures with slight modifications.
Recombinant human integrin αVβ6 receptor (R&D Systems, Minneapolis, MN, USA) was diluted to 1.0 μg/mL in coating buffer containing 20 mM Tris-HCl (pH 7.4), 150 mM NaCl, 1 mM MnCl2, 2 mM CaCl2, and 1 mM MgCl2. An aliquot of diluted receptor (100 μL/well) was added to 96-well microtiter plates (Nunc MaxiSorp, Thermo Fisher Scientific, Roskilde, Denmark) and incubated overnight at 4 °C. The plates were incubated with blocking solution (coating buffer plus 1% bovine serum albumin) for additional 2 h at room temperature to block nonspecific binding. After washing twice with blocking solution, plates were incubated shaking in the dark for 3 h at room temperature, with various concentrations (10^−4–10^−11 M) of test compounds in the presence of 1 μg/mL biotinylated fibronectin (Molecular Innovations, Novi, MI, USA). Biotinylation was performed using an EZ-Link Sulfo-NHS-Biotinylation kit (Pierce, Rockford, IL, USA). After washing three times, the plates were incubated shaking for 1 h, at room temperature, with streptavidin-biotinylated peroxidase complex (Amersham Biosciences, Uppsala, Sweden). After washing 3 times with blocking solution, plates were incubated with 100 μL/well of Substrate Reagent Solution (R&D Systems) for 30 min shaking in the dark, before stopping the reaction with the addition of 50 μL/well 2N H2SO4. Absorbance at 415 nm was read in a SynergyTM HT Multi-Detection Microplate Reader (BioTek Instruments, Inc., Winooski, VT, USA). Each data point represents the average of triplicate wells; data analysis was carried out by nonlinear regression analysis with GraphPad Prism software (GraphPad Software, Inc., La Jolla, CA, USA). Each experiment was repeated in triplicate.

[3] = test system: FAK/Akt integrin-activated transduction signaling pathway; set-up: method as in PMID 25761230; conditions: human glioblastoma cells; cited from earlier work
human endothelial cells = test system: human endothelial cells; set-up: method as in PMID 25053992; conditions: cited from earlier work
different cancer cells = test system: different cancer cells; set-up: method as in PMID 25053992; conditions: cited from earlier work
human glioblastoma cells = test system: human glioblastoma cells; set-up: method as in PMID 25761230; conditions: cited from earlier work
αVβ3 integrin [4] = biological target: T1, αVβ3 integrin; experiment: Inhibition of biotinylated vitronectin binding to isolated αVβ3 integrin; conditions: 50% inhibition of biotinylated vitronectin binding to isolated αVβ3; new RAD peptidomimetic tested for this paper
integrin αVβ6 = test system: integrin αVβ6; set-up: method as in PMID 28074920; conditions: immobilized LAP and soluble integrin; cited from earlier work

Row | SMILES | IC50 [2] | IC50 (αVβ6)/IC50 (αVβ3) [2] | also measured
1 | N=C(N)NCCC[C@@H]1NC(=O)C[C@H]2C(=O)N(Cc3ccccc3)[C@H](CNC(=O)[C@H](CC(=O)O)NC(=O)CNC1=O)C(=O)N2Cc1ccccc1 [Compound 5] | 173 ± 52.5 nM | – | IC50 (αVβ3 integrin [1]): 12.6 ± 5 nM
2 | N=C(N)NCCC[C@@H]1NC(=O)C[C@H]2NC(=O)[C@H](CNC(=O)[C@H](CC(=O)O)NC(=O)CNC1=O)N(Cc1ccccc1)C2=O [Compound 3] | 95.6 ± 24.6 nM | 21 | effects on the FAK/Akt integrin-activated transduction signaling pathway [3]: inhibitory effects; inhibition of angiogenesis induced by pro-angiogenic growth factors (human endothelial cells): significantly inhibit; inhibition of cell adhesion (different cancer cells): significantly inhibit; effects on integrin-mediated cell infiltration processes (human glioblastoma cells): inhibitory effects
3 | CC(C)[C@H]1C(=O)N[C@@H](CCCNC(=N)N)C(=O)NCC(=O)N[C@@H](CC(=O)O)C(=O)N[C@H](Cc2ccccc2)C(=O)N1C [Compound 1a, cyclo[RGDf(N-Me)V]] | – | – | αVβ6 IC50 (integrin αVβ6): micromolar
4 | N=C(N)NCCC[C@@H]1NC(=O)C[C@H]2C(=O)N[C@H](CNC(=O)[C@H](CC(=O)O)NC(=O)CNC1=O)C(=O)N2Cc1ccccc1 [Compound 4] | 95.3 ± 4.9 nM | – | –
5 | N=C(N)NCCC[C@@H]1NC(=O)C[C@@H]2NC(=O)[C@@H](CNC(=O)[C@H](CC(=O)O)NC(=O)CNC1=O)N(Cc1ccccc1)C2=O [Compound 2] | 345 ± 1 nM | 108 | –

Now from value to compound, other results behind:

Row | IC50 [2] | IC50 (αVβ6)/IC50 (αVβ3) [2] | SMILES | also measured
6 | – | 3 | CC1NC(=O)[C@H](CCCNC(=N)N)NC(=O)C[C@H]2NC(=O)[C@H](CNC(=O)[C@H](CC(=O)O)NC1=O)N(Cc1ccccc1)C2=O (some centres unmarked) [Compound 8, Cyclo[DKP-3-RAD]] | αVβ3 IC50 (αVβ3 integrin [4]): micromolar; αVβ6 IC50 [2]: micromolar
7 | 76.6 ± 4.2 nM | 37 | N=C(N)NCCC[C@@H]1NC(=O)C[C@@H]2C(=O)N[C@@H](CNC(=O)[C@H](CC(=O)O)NC(=O)CNC1=O)C(=O)N2Cc1ccccc1 [Compound 6] | –
8 | 2.3 ± 0.8 nM | – | N=C(N)NCCC[C@@H]1NC(=O)C[C@@H]2C(=O)N(Cc3ccccc3)[C@@H](CNC(=O)[C@H](CC(=O)O)NC(=O)CNC1=O)C(=O)N2Cc1ccccc1 [Compound 7] | αVβ3 IC50 (αVβ3 integrin [1]): subnanomolar; αVβ6 IC50 [2]: low nanomolar
